In patent US9434724B2, “Quinuclidines for modulating alpha 7 activity” (priority 2014, dated 2016):

Molecular target: CYP2D6 (Homo sapiens (Human), UniProt P10635)
Test: Cytochrome P450 inhibition in human liver microsomes, CYP2D6
Settings: read-out: 2D6 IC50, Protocol 1

CYP2D6, sequence (P10635 whole entry): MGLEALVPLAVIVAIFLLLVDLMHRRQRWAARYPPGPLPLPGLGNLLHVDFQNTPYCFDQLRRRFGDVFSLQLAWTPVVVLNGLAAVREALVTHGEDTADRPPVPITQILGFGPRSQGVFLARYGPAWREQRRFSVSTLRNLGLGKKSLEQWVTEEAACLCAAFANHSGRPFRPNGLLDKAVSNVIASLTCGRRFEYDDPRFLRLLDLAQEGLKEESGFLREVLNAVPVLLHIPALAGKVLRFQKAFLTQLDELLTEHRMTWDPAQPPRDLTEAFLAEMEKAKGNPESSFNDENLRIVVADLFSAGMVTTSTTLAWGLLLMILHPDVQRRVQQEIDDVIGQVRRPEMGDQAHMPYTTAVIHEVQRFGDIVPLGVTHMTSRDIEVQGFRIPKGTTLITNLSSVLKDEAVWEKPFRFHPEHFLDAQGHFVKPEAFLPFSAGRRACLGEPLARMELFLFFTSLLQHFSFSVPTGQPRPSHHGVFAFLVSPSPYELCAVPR

SMILES	IC50
Cl.O=C(OCC12CCN(CC1)CC2)c1c[nH]c2cc(O)c(F)cc12 [Compound 59, Quinuclidin-4-ylmethyl 5-fluoro-6-hydroxy-1H-indole-3-carboxylate hydrochloride]	> 10 µM
Cc1cc(C#N)cc2[nH]cc(C(=O)OCC34CCN(CC3)CC4)c12 [Compound 60, quinuclidin-4-ylmethyl 6-cyano-4-methyl-1H-indole-3-carboxylate]	> 10 µM

Same assay, conditions: read-out: 2D6 IC50, Protocol 2

SMILES	IC50
Cc1cccc2c(C(=O)OCC34CCN(CC3)CC4)c[nH]c12 [Compound 19, quinuclidin-4-ylmethyl 7-methyl-1H-indole-3-carboxylate]	> 10 µM

Molecular target: T1, CYP3A4 (Homo sapiens (Human), UniProt P08684)
Test: not given
Settings: microsomes, 5 min

T1 sequence (P08684 whole entry): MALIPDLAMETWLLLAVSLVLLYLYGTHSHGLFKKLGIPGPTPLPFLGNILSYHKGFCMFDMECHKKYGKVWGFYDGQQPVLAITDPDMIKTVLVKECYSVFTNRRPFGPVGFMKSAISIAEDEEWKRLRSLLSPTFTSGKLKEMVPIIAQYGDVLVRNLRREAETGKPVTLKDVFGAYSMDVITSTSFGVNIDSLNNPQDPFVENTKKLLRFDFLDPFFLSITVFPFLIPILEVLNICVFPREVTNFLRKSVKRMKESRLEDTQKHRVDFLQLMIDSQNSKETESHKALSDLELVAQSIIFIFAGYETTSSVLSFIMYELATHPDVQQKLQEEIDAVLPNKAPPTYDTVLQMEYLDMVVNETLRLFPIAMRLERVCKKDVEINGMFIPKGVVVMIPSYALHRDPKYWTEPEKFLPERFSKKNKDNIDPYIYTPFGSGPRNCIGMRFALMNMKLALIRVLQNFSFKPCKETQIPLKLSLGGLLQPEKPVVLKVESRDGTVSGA

SMILES	IC50
COc1cc(C)c2c(C(=O)OCC34CCN(CC3)CC4)c[nH]c2c1 [Compound 37, quinuclidin-4-ylmethyl 6-methoxy-4-methyl-1H-indole-3-carboxylate]	> 10 µM
Cc1cc(C#N)cc2[nH]cc(C(=O)OCC34CCN(CC3)CC4)c12 [Compound 60, quinuclidin-4-ylmethyl 6-cyano-4-methyl-1H-indole-3-carboxylate]	> 10 µM

Molecular target: rat brain nicotinic receptor (α7 NAChR) (Rattus norvegicus (Rat), UniProt Q05941)
Test: not given
Type: binding
Settings: not given

rat brain nicotinic receptor (α7 NAChR), sequence (Q05941 23-502 limits assumed): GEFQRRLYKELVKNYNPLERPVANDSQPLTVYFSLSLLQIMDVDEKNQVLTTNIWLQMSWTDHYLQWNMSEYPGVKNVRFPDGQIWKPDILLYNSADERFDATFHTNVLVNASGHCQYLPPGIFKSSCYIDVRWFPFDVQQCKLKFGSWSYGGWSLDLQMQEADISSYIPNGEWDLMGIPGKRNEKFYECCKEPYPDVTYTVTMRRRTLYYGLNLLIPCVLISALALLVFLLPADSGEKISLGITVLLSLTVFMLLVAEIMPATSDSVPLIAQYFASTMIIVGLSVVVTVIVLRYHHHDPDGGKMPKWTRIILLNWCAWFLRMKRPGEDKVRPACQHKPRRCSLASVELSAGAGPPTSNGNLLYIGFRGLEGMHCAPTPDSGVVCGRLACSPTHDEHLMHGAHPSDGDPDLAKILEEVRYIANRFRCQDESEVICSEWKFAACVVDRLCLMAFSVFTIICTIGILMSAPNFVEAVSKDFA

SMILES	IC50	Ki
Cc1cccc2c(C(=O)OCC34CCN(CC3)CC4)c[nH]c12 [Compound 19, quinuclidin-4-ylmethyl 7-methyl-1H-indole-3-carboxylate]	0.764 µM	0.665 µM
Cl.O=C(OCC12CCN(CC1)CC2)c1c[nH]c2cc(O)c(F)cc12 [Compound 59, Quinuclidin-4-ylmethyl 5-fluoro-6-hydroxy-1H-indole-3-carboxylate hydrochloride]	0.0701 µM	0.0602 µM
Cc1cc(C#N)cc2[nH]cc(C(=O)OCC34CCN(CC3)CC4)c12 [Compound 60, quinuclidin-4-ylmethyl 6-cyano-4-methyl-1H-indole-3-carboxylate]	0.474 µM	0.407 µM

Molecular target: CYP2C9 (Homo sapiens (Human), UniProt P11712)
Test: Cytochrome P450 inhibition in human liver microsomes, CYP2C9
Settings: read-out: 2C9 IC50, Protocol 1

CYP2C9, sequence (P11712 whole entry): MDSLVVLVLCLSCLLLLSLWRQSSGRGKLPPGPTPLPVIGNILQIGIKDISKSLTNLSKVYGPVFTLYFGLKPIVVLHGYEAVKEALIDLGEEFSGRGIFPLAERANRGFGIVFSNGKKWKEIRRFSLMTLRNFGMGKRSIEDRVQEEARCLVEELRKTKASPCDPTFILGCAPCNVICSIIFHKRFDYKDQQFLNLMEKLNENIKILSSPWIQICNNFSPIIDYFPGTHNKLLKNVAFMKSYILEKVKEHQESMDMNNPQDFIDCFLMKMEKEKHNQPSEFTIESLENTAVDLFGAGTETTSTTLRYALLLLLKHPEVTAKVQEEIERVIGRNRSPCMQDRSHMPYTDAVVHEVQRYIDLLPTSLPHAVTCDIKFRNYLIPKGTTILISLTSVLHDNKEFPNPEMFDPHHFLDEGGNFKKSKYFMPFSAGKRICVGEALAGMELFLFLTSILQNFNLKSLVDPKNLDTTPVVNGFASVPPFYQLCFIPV

SMILES	IC50
COc1cc(C)c2c(C(=O)OCC34CCN(CC3)CC4)c[nH]c2c1 [Compound 37, quinuclidin-4-ylmethyl 6-methoxy-4-methyl-1H-indole-3-carboxylate]	> 10 µM
Cl.O=C(OCC12CCN(CC1)CC2)c1c[nH]c2cc(O)c(F)cc12 [Compound 59, Quinuclidin-4-ylmethyl 5-fluoro-6-hydroxy-1H-indole-3-carboxylate hydrochloride]	> 10 µM

System: not listed separately
Test: Human plasma stability
Type: in vitro ADME
Settings: Protocol No. 2; plasma, 5 μM, 37° C.
Summary of the method: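 Compound remaining was quantified by LC-MS/MS as peak-area ratio to internal standard relative to time 0, with half-lives from single-exponential fits. Protocol 1 incubated 1 μM in heparinized human plasma (pH 7.4, 37° C) to 120 min; protocol 2 used 5 μM, pH 7.4–8.0, 37° C, n=2, to 120 min.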

SMILES	% Remaining @ 2 h
Cl.O=C(OCC12CCN(CC1)CC2)c1c[nH]c2cc(O)c(F)cc12 [Compound 59, Quinuclidin-4-ylmethyl 5-fluoro-6-hydroxy-1H-indole-3-carboxylate hydrochloride]	53.78%

Same assay, conditions: human, plasma

SMILES	T1/2
COc1cc(C)c2c(C(=O)OCC34CCN(CC3)CC4)c[nH]c2c1 [Compound 37, quinuclidin-4-ylmethyl 6-methoxy-4-methyl-1H-indole-3-carboxylate]	∞

Same assay, conditions: human, plasma, 2 h, 5 μM

SMILES	% Remaining @ 2 h
COc1cc(C)c2c(C(=O)OCC34CCN(CC3)CC4)c[nH]c2c1 [Compound 37, quinuclidin-4-ylmethyl 6-methoxy-4-methyl-1H-indole-3-carboxylate]	108.49%
Cc1cc(C#N)cc2[nH]cc(C(=O)OCC34CCN(CC3)CC4)c12 [Compound 60, quinuclidin-4-ylmethyl 6-cyano-4-methyl-1H-indole-3-carboxylate]	89.46%

System: not listed separately
Test: Metabolic stability assay in rat liver microsomes (RLM)
Type: in vitro ADME
Settings: Protocol No. 1; rat liver microsomes, 1 μM
Summary of the method: (§1)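 In Protocol 1, compound was 1 μM final with NADPH at 37 °C, sampled at 0–45 min. In Protocol 2, 1.5 μM compound with 0.75 mg/mL microsomes (pre-NADPH mix) in 0.1 M potassium phosphate, 1 mM EDTA, pH 7.4 was pre-incubated 10 min, then NADPH started the reaction. Both: LC-MS/MS % remaining versus time 0, half-life from single-phase exponential fit.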

SMILES	RLM
Cl.O=C(OCC12CCN(CC1)CC2)c1c[nH]c2cc(O)c(F)cc12 [Compound 59, Quinuclidin-4-ylmethyl 5-fluoro-6-hydroxy-1H-indole-3-carboxylate hydrochloride]	24.713 mL/min/kg

Same assay, conditions: rat, microsomes, 1 μM

SMILES	RLM
COc1cc(C)c2c(C(=O)OCC34CCN(CC3)CC4)c[nH]c2c1 [Compound 37, quinuclidin-4-ylmethyl 6-methoxy-4-methyl-1H-indole-3-carboxylate]	33.07 mL/min/kg
Cc1cc(C#N)cc2[nH]cc(C(=O)OCC34CCN(CC3)CC4)c12 [Compound 60, quinuclidin-4-ylmethyl 6-cyano-4-methyl-1H-indole-3-carboxylate]	78.5875 mL/min/kg

Same assay, conditions: rat, microsomes, 1 μM, pH 7.4

SMILES	RLM
Cc1cccc2c(C(=O)OCC34CCN(CC3)CC4)c[nH]c12 [Compound 19, quinuclidin-4-ylmethyl 7-methyl-1H-indole-3-carboxylate]	280.991 mL/min/kg

Molecular target: T2, CYP2C19 (Homo sapiens (Human), UniProt P33261)
Test: Cytochrome P450 inhibition in human liver microsomes, CYP2C19
Settings: read-out: 2C19 IC50, Protocol 1

T2 sequence (P33261 whole entry): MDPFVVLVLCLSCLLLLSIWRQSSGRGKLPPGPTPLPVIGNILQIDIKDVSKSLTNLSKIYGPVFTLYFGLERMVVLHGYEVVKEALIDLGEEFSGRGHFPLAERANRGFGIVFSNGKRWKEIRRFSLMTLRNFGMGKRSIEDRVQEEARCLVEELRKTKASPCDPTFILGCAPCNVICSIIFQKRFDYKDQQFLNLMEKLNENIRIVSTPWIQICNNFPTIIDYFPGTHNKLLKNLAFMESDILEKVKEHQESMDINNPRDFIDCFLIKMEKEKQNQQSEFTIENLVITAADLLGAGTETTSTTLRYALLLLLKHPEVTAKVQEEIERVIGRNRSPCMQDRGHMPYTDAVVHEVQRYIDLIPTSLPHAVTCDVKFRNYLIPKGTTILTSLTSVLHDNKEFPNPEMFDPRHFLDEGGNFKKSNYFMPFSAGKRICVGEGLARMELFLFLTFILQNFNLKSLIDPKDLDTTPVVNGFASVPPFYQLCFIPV

SMILES	IC50
COc1cc(C)c2c(C(=O)OCC34CCN(CC3)CC4)c[nH]c2c1 [Compound 37, quinuclidin-4-ylmethyl 6-methoxy-4-methyl-1H-indole-3-carboxylate]	> 10 µM
Cl.O=C(OCC12CCN(CC1)CC2)c1c[nH]c2cc(O)c(F)cc12 [Compound 59, Quinuclidin-4-ylmethyl 5-fluoro-6-hydroxy-1H-indole-3-carboxylate hydrochloride]	20.9 µM

System: not listed separately
Test: Metabolic stability assay in human liver microsomes (HLM)
Type: in vitro ADME
Settings: Protocol No. 1; human liver microsomes, 1 μM
Summary of the method: as §1

SMILES	HLM
Cl.O=C(OCC12CCN(CC1)CC2)c1c[nH]c2cc(O)c(F)cc12 [Compound 59, Quinuclidin-4-ylmethyl 5-fluoro-6-hydroxy-1H-indole-3-carboxylate hydrochloride]	0 mL/min/kg

Same assay, conditions: human, microsomes, 1 μM

SMILES	HLM
COc1cc(C)c2c(C(=O)OCC34CCN(CC3)CC4)c[nH]c2c1 [Compound 37, quinuclidin-4-ylmethyl 6-methoxy-4-methyl-1H-indole-3-carboxylate]	20.18 mL/min/kg
Cc1cc(C#N)cc2[nH]cc(C(=O)OCC34CCN(CC3)CC4)c12 [Compound 60, quinuclidin-4-ylmethyl 6-cyano-4-methyl-1H-indole-3-carboxylate]	15.0953 mL/min/kg

Same assay, conditions: human, microsomes, 1 μM, pH 7.4

SMILES	HLM
Cc1cccc2c(C(=O)OCC34CCN(CC3)CC4)c[nH]c12 [Compound 19, quinuclidin-4-ylmethyl 7-methyl-1H-indole-3-carboxylate]	<13.608 mL/min/kg

Molecular target: T2, CYP2C19
Test: not given
Settings: microsomes

SMILES	IC50
Cc1cccc2c(C(=O)OCC34CCN(CC3)CC4)c[nH]c12 [Compound 19, quinuclidin-4-ylmethyl 7-methyl-1H-indole-3-carboxylate]	> 10 µM

Same assay, conditions: microsomes, 45 min

SMILES	IC50
Cc1cc(C#N)cc2[nH]cc(C(=O)OCC34CCN(CC3)CC4)c12 [Compound 60, quinuclidin-4-ylmethyl 6-cyano-4-methyl-1H-indole-3-carboxylate]	> 10 µM

Molecular target: CYP1A2 (Homo sapiens (Human), UniProt P05177)
Test: Cytochrome P450 inhibition in human liver microsomes, CYP1A2
Settings: read-out: 1A2 IC50, Protocol 1

CYP1A2, sequence (P05177 whole entry): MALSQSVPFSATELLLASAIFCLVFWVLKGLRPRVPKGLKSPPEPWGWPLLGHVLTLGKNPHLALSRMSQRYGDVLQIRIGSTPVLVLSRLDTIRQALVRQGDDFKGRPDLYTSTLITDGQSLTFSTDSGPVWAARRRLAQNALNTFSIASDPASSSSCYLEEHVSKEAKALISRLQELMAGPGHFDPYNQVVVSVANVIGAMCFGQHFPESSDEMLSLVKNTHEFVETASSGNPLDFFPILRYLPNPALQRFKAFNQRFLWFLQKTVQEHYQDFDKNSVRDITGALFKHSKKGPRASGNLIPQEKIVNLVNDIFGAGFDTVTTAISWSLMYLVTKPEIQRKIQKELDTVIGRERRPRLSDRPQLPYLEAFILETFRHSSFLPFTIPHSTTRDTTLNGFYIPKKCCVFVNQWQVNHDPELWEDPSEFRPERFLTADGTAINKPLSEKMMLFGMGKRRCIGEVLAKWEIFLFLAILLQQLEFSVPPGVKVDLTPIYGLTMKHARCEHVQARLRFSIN

SMILES	IC50
COc1cc(C)c2c(C(=O)OCC34CCN(CC3)CC4)c[nH]c2c1 [Compound 37, quinuclidin-4-ylmethyl 6-methoxy-4-methyl-1H-indole-3-carboxylate]	> 10 µM
Cl.O=C(OCC12CCN(CC1)CC2)c1c[nH]c2cc(O)c(F)cc12 [Compound 59, Quinuclidin-4-ylmethyl 5-fluoro-6-hydroxy-1H-indole-3-carboxylate hydrochloride]	> 10 µM
Cc1cc(C#N)cc2[nH]cc(C(=O)OCC34CCN(CC3)CC4)c12 [Compound 60, quinuclidin-4-ylmethyl 6-cyano-4-methyl-1H-indole-3-carboxylate]	> 10 µM

Same assay, conditions: read-out: 1A2 IC50, Protocol 2

SMILES	IC50
Cc1cccc2c(C(=O)OCC34CCN(CC3)CC4)c[nH]c12 [Compound 19, quinuclidin-4-ylmethyl 7-methyl-1H-indole-3-carboxylate]	> 10 µM

Molecular target: T1, CYP3A4
Test: Cytochrome P450 inhibition in human liver microsomes, CYP3A4
Settings: read-out: 3A4 IC50 (Midazolam), substrate midazolam, Protocol 1

SMILES	IC50
Cl.O=C(OCC12CCN(CC1)CC2)c1c[nH]c2cc(O)c(F)cc12 [Compound 59, Quinuclidin-4-ylmethyl 5-fluoro-6-hydroxy-1H-indole-3-carboxylate hydrochloride]	> 10 µM

Same assay, conditions: read-out: 3A4 IC50 (Testosterone), substrate testosterone, Protocol 1

SMILES	IC50
Cl.O=C(OCC12CCN(CC1)CC2)c1c[nH]c2cc(O)c(F)cc12 [Compound 59, Quinuclidin-4-ylmethyl 5-fluoro-6-hydroxy-1H-indole-3-carboxylate hydrochloride]	> 10 µM
